Among the targets are ABL2 (human) (UniProt P42684); CDC42BPA (human) (UniProt Q5VT25); CHEK2 (human) (UniProt O96017); CLK3 (human) (UniProt P49761); CSNK2A2 (human) (UniProt P19784); DDR2 (human) (UniProt Q16832); EGFR (human) (UniProt P00533); EPHA1 (human) (UniProt P21709); ERBB4 (human) (UniProt Q15303); HIPK2 (human) (UniProt Q9H2X6); PLK4 (human) (UniProt O00444); RPS6KA3 KD1 (human) (UniProt P51812); SRMS (human) (UniProt Q9H3Y6); SYK (human) (UniProt P43405); TXK (human) (UniProt P42681); YSK4 (human) (UniProt Q56UN5); TAOK1 (human) (UniProt Q7L7X3).

Holding throughout (assay): KINOMEscan competition binding
What all share (conditions): compound 10.0 µM

In test [1] the test system is EGFR (human), P00533 [746-750 del].
Test [2] deals with EGFR (human), P00533 [747-751 del / S ins].
Test [3] concerns EGFR (human), P00533 [752-759 del].
Test [4] relates to EGFR (human), P00533 [A750P; 747-749 del].
Test [5] deals with EGFR (human), P00533 [G719C].
Test [6] concerns EGFR (human), P00533 [G719S].
Test [7] has as its system EGFR (human), P00533 [L858R].
Test [8] concerns EGFR (human), P00533 [L861Q].
Test [9] relates to EGFR (human), P00533 [P753S; 747-752 del].
Test [10] relates to EGFR (human), P00533 [T790M/L858R].
Test [11] concerns RET (human), P07949 [V804M].

Values joined by “and” are separate entries in the source; they are usually repeats but may differ in a detail not shown here. Identical values can stand only once.

The results in this text go back to the kinase profiling compilation of Christmann-Franck et al. (2016).

Sequence of PLK4 (human) (O00444 whole entry, looked up): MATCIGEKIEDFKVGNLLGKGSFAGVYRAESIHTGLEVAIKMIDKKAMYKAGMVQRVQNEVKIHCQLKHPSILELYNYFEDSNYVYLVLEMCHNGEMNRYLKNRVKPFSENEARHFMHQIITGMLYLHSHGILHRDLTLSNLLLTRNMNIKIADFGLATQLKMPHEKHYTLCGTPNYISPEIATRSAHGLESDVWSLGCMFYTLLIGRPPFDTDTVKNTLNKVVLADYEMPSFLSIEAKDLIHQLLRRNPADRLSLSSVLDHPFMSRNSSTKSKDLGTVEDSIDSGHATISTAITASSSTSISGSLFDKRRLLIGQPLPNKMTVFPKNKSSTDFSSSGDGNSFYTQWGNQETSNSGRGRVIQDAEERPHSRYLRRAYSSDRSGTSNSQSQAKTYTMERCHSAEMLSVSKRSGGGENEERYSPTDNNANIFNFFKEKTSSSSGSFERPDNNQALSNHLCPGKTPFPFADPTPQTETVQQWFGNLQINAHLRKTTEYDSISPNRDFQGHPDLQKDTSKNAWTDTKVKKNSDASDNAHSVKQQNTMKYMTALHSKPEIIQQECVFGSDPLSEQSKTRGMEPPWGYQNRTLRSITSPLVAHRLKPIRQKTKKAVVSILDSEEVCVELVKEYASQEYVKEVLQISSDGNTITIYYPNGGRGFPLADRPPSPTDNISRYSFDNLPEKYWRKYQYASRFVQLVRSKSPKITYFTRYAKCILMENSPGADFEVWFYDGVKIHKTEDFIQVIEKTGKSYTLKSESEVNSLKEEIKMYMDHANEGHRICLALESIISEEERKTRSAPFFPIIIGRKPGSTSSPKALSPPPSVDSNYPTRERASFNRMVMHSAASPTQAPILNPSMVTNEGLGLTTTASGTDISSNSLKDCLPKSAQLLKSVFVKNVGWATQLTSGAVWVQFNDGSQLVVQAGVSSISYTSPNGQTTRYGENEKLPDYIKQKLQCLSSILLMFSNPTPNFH
Sequence of SRMS (human) (Q9H3Y6 whole entry, looked up): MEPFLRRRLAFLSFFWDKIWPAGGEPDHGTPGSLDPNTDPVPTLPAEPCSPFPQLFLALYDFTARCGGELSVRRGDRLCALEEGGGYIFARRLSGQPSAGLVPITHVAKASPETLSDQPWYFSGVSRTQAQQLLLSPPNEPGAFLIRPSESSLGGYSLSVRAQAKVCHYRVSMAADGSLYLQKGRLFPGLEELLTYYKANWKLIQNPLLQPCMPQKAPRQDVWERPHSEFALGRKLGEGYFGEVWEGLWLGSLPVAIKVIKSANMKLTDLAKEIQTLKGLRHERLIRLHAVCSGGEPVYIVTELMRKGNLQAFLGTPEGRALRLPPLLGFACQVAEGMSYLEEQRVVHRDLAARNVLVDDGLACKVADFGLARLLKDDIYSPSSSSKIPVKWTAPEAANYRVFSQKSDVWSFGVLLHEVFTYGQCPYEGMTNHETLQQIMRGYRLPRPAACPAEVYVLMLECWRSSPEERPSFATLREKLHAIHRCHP
Sequence of CSNK2A2 (human) (P19784 whole entry, looked up): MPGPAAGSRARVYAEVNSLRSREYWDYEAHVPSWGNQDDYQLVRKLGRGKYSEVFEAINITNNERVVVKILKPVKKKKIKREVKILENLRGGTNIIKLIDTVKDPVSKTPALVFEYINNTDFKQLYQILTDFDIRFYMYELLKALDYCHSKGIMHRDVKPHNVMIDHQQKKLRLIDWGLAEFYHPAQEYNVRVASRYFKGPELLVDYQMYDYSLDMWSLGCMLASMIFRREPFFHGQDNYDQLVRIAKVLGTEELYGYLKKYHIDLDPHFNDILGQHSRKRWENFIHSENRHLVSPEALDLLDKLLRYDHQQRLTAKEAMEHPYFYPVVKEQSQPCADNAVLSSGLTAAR
Sequence of HIPK2 (human) (Q9H2X6 whole entry, looked up): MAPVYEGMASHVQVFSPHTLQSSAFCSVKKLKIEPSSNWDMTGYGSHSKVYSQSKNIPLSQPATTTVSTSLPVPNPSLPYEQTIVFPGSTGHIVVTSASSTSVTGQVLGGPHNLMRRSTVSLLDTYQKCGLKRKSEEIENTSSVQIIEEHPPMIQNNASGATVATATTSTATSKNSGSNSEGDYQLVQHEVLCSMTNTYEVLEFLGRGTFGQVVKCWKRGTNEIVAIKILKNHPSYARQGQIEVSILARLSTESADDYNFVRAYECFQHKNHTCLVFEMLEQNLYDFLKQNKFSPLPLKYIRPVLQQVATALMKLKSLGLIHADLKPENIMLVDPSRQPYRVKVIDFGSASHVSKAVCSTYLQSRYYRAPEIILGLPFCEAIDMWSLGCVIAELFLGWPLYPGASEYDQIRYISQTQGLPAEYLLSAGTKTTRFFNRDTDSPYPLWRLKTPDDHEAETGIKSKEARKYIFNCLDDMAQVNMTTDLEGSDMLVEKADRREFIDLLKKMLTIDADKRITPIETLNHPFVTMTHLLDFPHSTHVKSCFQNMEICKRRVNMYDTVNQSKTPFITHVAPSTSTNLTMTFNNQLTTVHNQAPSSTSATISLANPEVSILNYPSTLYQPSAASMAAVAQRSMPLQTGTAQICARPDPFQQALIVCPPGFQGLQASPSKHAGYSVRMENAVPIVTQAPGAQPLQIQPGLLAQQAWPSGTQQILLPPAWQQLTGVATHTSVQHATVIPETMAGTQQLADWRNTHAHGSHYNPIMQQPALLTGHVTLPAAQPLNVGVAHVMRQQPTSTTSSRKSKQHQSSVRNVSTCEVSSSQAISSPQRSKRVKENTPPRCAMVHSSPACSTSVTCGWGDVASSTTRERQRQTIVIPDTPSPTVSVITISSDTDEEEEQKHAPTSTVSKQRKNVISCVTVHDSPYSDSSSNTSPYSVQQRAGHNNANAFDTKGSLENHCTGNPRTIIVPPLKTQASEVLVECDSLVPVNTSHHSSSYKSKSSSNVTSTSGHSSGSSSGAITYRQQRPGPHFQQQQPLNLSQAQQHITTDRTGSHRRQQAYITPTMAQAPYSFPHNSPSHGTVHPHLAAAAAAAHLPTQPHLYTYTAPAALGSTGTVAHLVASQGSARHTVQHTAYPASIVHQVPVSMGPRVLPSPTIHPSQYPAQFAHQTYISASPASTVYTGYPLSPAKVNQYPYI
Sequence of TAOK1 (human) (Q7L7X3 whole entry, looked up): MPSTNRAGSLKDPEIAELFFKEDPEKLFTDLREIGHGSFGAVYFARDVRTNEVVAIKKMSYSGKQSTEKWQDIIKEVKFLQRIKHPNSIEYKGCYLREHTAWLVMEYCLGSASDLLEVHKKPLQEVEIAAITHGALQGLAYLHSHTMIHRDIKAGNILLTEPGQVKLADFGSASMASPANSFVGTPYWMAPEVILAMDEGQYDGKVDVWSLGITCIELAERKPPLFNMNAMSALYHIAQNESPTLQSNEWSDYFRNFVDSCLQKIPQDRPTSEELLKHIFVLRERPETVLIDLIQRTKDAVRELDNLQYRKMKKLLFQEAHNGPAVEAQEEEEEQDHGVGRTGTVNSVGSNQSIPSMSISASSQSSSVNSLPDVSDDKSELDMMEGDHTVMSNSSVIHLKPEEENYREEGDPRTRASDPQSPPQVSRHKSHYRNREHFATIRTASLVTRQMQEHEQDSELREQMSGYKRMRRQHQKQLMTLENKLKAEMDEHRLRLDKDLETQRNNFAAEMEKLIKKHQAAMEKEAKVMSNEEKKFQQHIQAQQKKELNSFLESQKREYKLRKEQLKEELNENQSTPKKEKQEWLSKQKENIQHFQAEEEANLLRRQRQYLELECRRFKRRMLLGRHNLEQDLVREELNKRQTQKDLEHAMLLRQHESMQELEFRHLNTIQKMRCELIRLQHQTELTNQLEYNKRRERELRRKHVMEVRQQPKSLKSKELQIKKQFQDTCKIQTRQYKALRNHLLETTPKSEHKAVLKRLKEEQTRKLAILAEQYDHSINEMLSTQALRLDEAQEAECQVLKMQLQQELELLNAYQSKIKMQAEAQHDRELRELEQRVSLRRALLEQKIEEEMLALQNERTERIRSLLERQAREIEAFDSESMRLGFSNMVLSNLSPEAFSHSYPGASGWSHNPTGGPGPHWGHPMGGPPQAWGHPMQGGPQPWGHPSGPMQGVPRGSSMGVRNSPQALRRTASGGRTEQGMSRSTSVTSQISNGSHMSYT
Sequence of CLK3 (human) (P49761 whole entry, looked up): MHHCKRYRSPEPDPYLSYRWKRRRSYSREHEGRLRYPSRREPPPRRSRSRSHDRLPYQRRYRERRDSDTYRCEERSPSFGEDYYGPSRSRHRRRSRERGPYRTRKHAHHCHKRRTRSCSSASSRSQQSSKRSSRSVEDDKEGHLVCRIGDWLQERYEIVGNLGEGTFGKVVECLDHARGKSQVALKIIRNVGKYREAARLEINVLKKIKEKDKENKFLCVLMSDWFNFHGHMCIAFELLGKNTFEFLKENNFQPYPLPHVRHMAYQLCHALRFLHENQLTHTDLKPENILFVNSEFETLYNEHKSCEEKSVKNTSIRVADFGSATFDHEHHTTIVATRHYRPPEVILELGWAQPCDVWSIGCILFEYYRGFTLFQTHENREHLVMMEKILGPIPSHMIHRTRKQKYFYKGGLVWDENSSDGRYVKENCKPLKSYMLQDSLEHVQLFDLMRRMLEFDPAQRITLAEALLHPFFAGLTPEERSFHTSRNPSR
Sequence of TXK (human) (P42681 whole entry, looked up): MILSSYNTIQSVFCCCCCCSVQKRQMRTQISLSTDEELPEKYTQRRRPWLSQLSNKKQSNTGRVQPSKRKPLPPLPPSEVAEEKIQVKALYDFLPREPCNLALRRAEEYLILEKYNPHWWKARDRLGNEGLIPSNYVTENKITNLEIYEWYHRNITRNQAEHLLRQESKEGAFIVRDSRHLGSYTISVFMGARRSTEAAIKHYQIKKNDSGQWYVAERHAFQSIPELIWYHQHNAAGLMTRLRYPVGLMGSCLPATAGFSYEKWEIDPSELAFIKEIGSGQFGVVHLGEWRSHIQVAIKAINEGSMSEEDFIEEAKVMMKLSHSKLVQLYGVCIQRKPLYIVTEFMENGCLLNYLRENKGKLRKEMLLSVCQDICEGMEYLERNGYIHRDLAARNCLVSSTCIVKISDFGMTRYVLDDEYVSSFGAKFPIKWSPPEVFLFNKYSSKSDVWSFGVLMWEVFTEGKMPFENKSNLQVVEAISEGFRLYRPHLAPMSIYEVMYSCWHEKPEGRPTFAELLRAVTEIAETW

In the case of `O=C1Nc2cc(Br)ccc2/C1=C1/Nc2ccccc2/C1=N\O`, the kinase still bound, per cent of control is 1.2% on ABL2 (human); 70% at CDC42BPA (human); 38% at CHEK2 (human); 81% at CLK3 (human); 8% on CSNK2A2 (human); 23% at DDR2 (human). Also, the kinase still bound, per cent of control on EGFR (human) stood at 44%; in test [1], 13%; in test [2], 24%; in test [3], 29%; in [4] it was 17%; in test [5], 39%. For the same molecule, the kinase still bound, per cent of control in test [6] is 35%; in test [7], 32%; in test [8], 34%; in test [9], 38%; in [10], 53%; on EPHA1 (human), 85%. For the same molecule, the kinase still bound, per cent of control at ERBB4 (human) was 46%; at HIPK2 (human), 7.4%; on PLK4 (human) it was 0%; in test [11], 0%; on RPS6KA3 KD1 (human), 80%; on SRMS (human) it was 13%. In addition, the kinase still bound, per cent of control at SYK (human) stood at 4.6%; on TXK (human), 15%; on YSK4 (human), 3.8%.

For the molecule `Cc1cnc(-c2cnc(NCCNc3ccc(C#N)cn3)nc2-c2ccc(Cl)cc2Cl)[nH]1`, the kinase still bound, per cent of control is 100% at ABL2 (human); 100% on CDC42BPA (human); 97% on CLK3 (human); 100% at CSNK2A2 (human); 100% on DDR2 (human); 100% on EPHA1 (human). The kinase still bound, per cent of control came out at 100% at ERBB4 (human); 100% on HIPK2 (human); 69% on PLK4 (human); 90% in test [11]; 95% at SRMS (human); 100% on SYK (human). In addition, the kinase still bound, per cent of control on TXK (human) was found to be 100%; at YSK4 (human), 30%.

Turning to `COc1ccc(CNC(=O)Nc2ncc([N+](=O)[O-])s2)cc1`, the kinase still bound, per cent of control is 89% at ABL2 (human); 100% at CDC42BPA (human); 100% at CSNK2A2 (human); 71% on DDR2 (human); 100% at EPHA1 (human); 100% at ERBB4 (human). Further, the kinase still bound, per cent of control is 90% at HIPK2 (human); 99% at PLK4 (human); 96% in test [11]; 75% on SRMS (human); 100% on SYK (human); 85% and 100% at TAOK1 (human). The values for the kinase still bound, per cent of control at TXK (human) and at YSK4 (human) were 100% and 49%, respectively.

`Cn1cc(C2=C(c3ccc(Cl)cc3Cl)C(=O)NC2=O)c2ccccc21`: the kinase still bound, per cent of control on ABL2 (human) was determined as 93%; on CDC42BPA (human), 100%; at CHEK2 (human), 90%; at CLK3 (human), 1.4%; on CSNK2A2 (human), 99%; at DDR2 (human), 84%. Further, the kinase still bound, per cent of control is 100% on EGFR (human); 77% in test [1]; 91% in test [2]; 94% in test [3]; 85% in [4]; 100% in [5]. In addition, the kinase still bound, per cent of control amounted to 99% in test [6]; 100% in test [7]; 83% in [8]; 99% in test [9]; 97% in test [10]; 100% at EPHA1 (human). Moreover, the kinase still bound, per cent of control worked out at 100% at ERBB4 (human); 15% on HIPK2 (human); 14% at PLK4 (human); 83% in test [11]; 100% on RPS6KA3 KD1 (human); 86% on SRMS (human). Further, the kinase still bound, per cent of control on SYK (human) is 92%; at TAOK1 (human) it was 90% and 98%; on TXK (human), 100%; at YSK4 (human), 12%.
